{
  "source": "patent US20180049444A1",
  "about": "“XENORHABDUS SZENTIRMAII METABOLITES, TRANS-CINNAMIC ACID, AND ANALOGS THEREOF AS ENHANCERS OF FUNGICIDAL ACTIVITY” (priority 2016, published 2018)",
  "key": {"[1]": {"tested_on": "Monilinia fructicola (brown rot)", "experiment": "Synergy assessment of TCA and trans-Cinnamaldehyde with commercial fungicides, growth area on PDA after 4 days", "type": "cell-based", "conditions": "FIG. 11", "text": "Following the procedures above and those in Hazir et al (2017b, J. Invertebrate Path. 145: 1-8), synergy assessments were implemented to compare trans-Cinnamic acid to an exemplary analog, trans-Cinnamaldehyde. The target phytopathogen was Monilinia fructicola (brown rot). Treatment effects were compared by measuring vegetative growth of the phytopathogens in vitro when they were exposed to the fungicidal agents applied alone or in combination. Solutions of the fungicidal treatments were incorporated into potato dextrose agar (PDA) to achieve the desired concentrations, and autoclaved. Prior to autoclaving the PDA, the prescribed volume of distilled water was reduced to allow addition of the fungicide solutions. Controls consisted of PDA without any amendment or PDA with acetone only (the solvent used for TCA). Trans-Cinnamic acid and trans-Cinnamaldehyde were applied alone or with commercial fungicides […]® (extract of Reynoutria sachalinensis) or Serenade® (Bacillus subtilis). After 4 days the area of M. fructicola growth was determined. […] [table]"}, "[2]": {"tested_on": "Glomerella cingulata", "experiment": "Suppression of in vitro vegetative growth (colony area) on agar amended with 10% supernatant or TCA", "type": "cell-based", "conditions": "G. cingulata; FIG. 2; 7 days"}, "[3]": {"tested_on": "Monilinia fructicola", "experiment": "Suppression of in vitro vegetative growth (colony area) on agar amended with 10% supernatant or TCA", "type": "cell-based", "conditions": "M. fructicola; FIG. 3; 7 days"}, "[4]": {"tested_on": "Venturia carpophila", "experiment": "Suppression of in vitro vegetative growth (colony area) on agar amended with 10% supernatant or TCA", "type": "cell-based", "conditions": "V. carpophila; FIG. 5; 7 days", "text": "(§1) Treatment effects were compared by measuring in vitro vegetative growth of the phytopathogens V. carpophila and V. effusa when exposed to the same bacterial exudates evaluated above in the germination study. Solutions of the fungicidal treatments were incorporated into PDA and autoclaved. Prior to autoclaving the PDA, the prescribed volume of distilled water was reduced to allow addition of treatment suspensions. Controls consisted of PDA without any amendment or PDA with acetone only (the solvent for TCA). The media were vortexed when cooled to 40-42° C. and poured to Petri dishes.\n(§2) A 5 mm diameter mycelia plug from a fungal culture plate was transferred onto the center surface of each agar dish (Fang et al. 2011; Hazir et al. 2017a) and incubated at 25° C. Vegetative growth of the fungus was measured after 7 days. Growth was measured in two perpendicular directions to obtain the approximate area of the fungal mat."}, "[5]": {"tested_on": "Venturia effusa", "experiment": "Suppression of in vitro vegetative growth (colony area) on agar amended with 10% supernatant or TCA", "type": "cell-based", "conditions": "V. effusa; FIG. 4; 7 days", "text": "as §1, §2"}, "[6]": {"tested_on": "V. effusa", "experiment": "Suppression of spore germination in potato dextrose broth with 10% bacterial supernatant or TCA", "type": "cell-based, Venturia effusa", "description": "The spores of V. carpophila and V. effusa were used to determine the inhibitory effect of the bacterial supernatants on germination. Supernatants tested were from X. nematophila, X. cabanillasii, X. bovienii, X. szentirmaii, strain 17C+E, P. temperate, P. luminescens (VS) and P. luminescens (K-22). The conidia suspension (0.1 ml) of V. effusa or V. carpophila was added to 0.8 ml potato dextrose broth (PDB) in 2 ml eppendorf tubes containing 0.1 ml (10% v/v) bacterial supernatant. Controls were PDB alone and conidial suspension without supernatant. Because TCA derived from Photorhabdus spp. was identified as an active compound with significant antifungal activity (Bock et al. 2014), TCA was added (1.27 mg/ml) in all experiments for comparison as well. The stock solution of TCA (99% purity, Sigma, St. Louis, Mo.) was prepared with 12.7 g dissolved in 100 ml ethanol (96%). […] The tubes were incubated at 25° C. for 48 hours and the first 100 conidia were counted under the microscope (400×) to determine percentage spore germination (which was used to determine treatment effects). […] An inhibition rate was determined according to the formula: 100×[(the average percentage of spores germinated in the control−the average percentage of spores germinated in the treatment)/the average percentage of spores germinated in the control] […]"}, "[7]": {"tested_on": "Venturia carpophila", "experiment": "Suppression of spore germination in potato dextrose broth with 10% bacterial supernatant or TCA", "type": "cell-based", "conditions": "V. carpophila", "description": "The spores of V. carpophila and V. effusa were used to determine the inhibitory effect of the bacterial supernatants on germination. Supernatants tested were from X. nematophila, X. cabanillasii, X. bovienii, X. szentirmaii, strain 17C+E, P. temperate, P. luminescens (VS) and P. luminescens (K-22). The conidia suspension (0.1 ml) of V. effusa or V. carpophila was added to 0.8 ml potato dextrose broth (PDB) in 2 ml eppendorf tubes containing 0.1 ml (10% v/v) bacterial supernatant. Controls were PDB alone and conidial suspension without supernatant. Because TCA derived from Photorhabdus spp. was identified as an active compound with significant antifungal activity (Bock et al. 2014), TCA was added (1.27 mg/ml) in all experiments for comparison as well. The stock solution of TCA (99% purity, Sigma, St. Louis, Mo.) was prepared with 12.7 g dissolved in 100 ml ethanol (96%). Each treatment was replicated three times, and the experiment was repeated once on a different date. The tubes were incubated at 25° C. for 48 hours and the first 100 conidia were counted under the microscope (400×) to determine percentage spore germination (which was used to determine treatment effects). […] An inhibition rate was determined according to the formula: 100×[(the average percentage of spores germinated in the control−the average percentage of spores germinated in the treatment)/the average percentage of spores germinated in the control] (Fang et al. 2011). Analysis of Variance (ANOVA) (SAS V9.3, SAS Institute Inc., Cary, N.C.) was also applied to the data for V. carpophila."}},
  "data": [
    {"smiles": "O=C/C=C/c1ccccc1", "note": "[CA, trans-Cinnamaldehyde]", "values": [
      {"measurement": "Interaction (level of M. fructicola suppression) when combined with commercial fungicides such as Regalia and Serenade", "setting": "[1]", "result": "synergistic"}
    ]},
    {"smiles": "O=C(O)/C=C/c1ccccc1", "note": "[TCA, trans-Cinnamic acid]", "values": [
      {"measurement": "suppression of vegetative growth compared among treatments", "setting": "[2]", "result": "most suppression"},
      {"measurement": "suppression of vegetative growth compared among treatments", "setting": "[3]", "result": "greatest suppression"},
      {"measurement": "suppression of vegetative growth compared among treatments", "setting": "[4]", "result": "most suppression"},
      {"measurement": "suppression of vegetative growth compared among treatments", "setting": "[5]", "result": "highest suppression"},
      {"measurement": "percentage spore germination compared among treatments", "setting": "[6]", "result": "the least"},
      {"measurement": "inhibition at 1270 µg/mL", "setting": "[6]; Venturia effusa, 10% v/v supernatant or TCA 1.27 mg/ml, 48 hours at 25° C., read-out: Inhibition rate of spore germination (%)", "result": 76.7, "unit": "%"},
      {"measurement": "percentage spore germination", "setting": "[7]; 10% supernatant or TCA 1.27 mg/ml, 48 hours", "result": 8.66, "unit": "%"},
      {"measurement": "level of suppression of spore germination compared among treatments", "setting": "[7]; FIG. 1", "result": "highest level of suppression"},
      {"measurement": "inhibition at 1270 µg/mL", "setting": "[7]; Venturia carpophila, 10% v/v supernatant or TCA 1.27 mg/ml, 48 hours at 25° C., read-out: Inhibition rate of spore germination (%)", "result": 87.7, "unit": "%"},
      {"measurement": "Interaction (level of M. fructicola suppression) when combined with commercial fungicides such as Regalia and Serenade", "setting": "[1]", "result": "synergistic"}
    ]}
  ]
}
